Experimental data as given in paper PMC10076467 (EJNMMI Research, 2023).
Several values for one entry are separate records, joined by “and”; a condition that tells them apart may be missing. Equal entries are not always repeated. Where two headings read alike, the source gives them in different places. One block for each compound: values may come before it.

How the values were obtained:
guinea pig σ1 receptor = guinea pig σ1 receptor (Cavia porcellus, UniProt Q60492); assay: PDSP σ1 receptor binding; conditions: 10 μM; read-out: inhibition of reference radioligand binding, guinea pig σ1 receptor
Chain of guinea pig σ1 receptor (Q60492 whole entry): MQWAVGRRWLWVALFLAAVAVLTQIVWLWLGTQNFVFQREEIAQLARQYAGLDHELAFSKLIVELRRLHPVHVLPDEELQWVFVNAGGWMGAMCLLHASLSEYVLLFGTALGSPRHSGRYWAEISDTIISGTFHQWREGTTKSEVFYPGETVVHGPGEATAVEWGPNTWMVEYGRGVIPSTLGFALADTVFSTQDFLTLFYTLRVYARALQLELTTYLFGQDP
Source text: (§1) NR2B-Me was submitted to the PDSP for assessment of binding affinity against a wide range of other receptors and binding sites. A full listing of these receptors and binding sites is given in the Supplemental Results. Detailed assay protocols are available at the PDSP website (http://pdsp.cwru.edu).
(§2) Assessment of Binding Affinity against a Wide Range of Other Receptors and Binding Sites. NR2B-Me was submitted to the National Institute of Mental Health Psychoactive Drug Screening program (NIMH-PDSP) to assess binding affinity against a wide range of other receptors and binding sites (5-HT1A, 1B, 1D, 1E, 2A, 2A agonist, 2A antagonist, 2B, 2B agonist, 2B antagonist, 2C, 2C agonist, 2C antagonist, 3, 5A, 6, 7; α2; α2β2, α2β2, α3β2, α3β4, α4β2, α4β4, α7; α1A, 1A agonist, 1B, 1B agonist, 1B antagonist, 2A-2C; AMPA*; β1-3; BZPa1-3, a5, a6, rat brain site; Ca^2+-Channel; CB1-2, D1, 2, 2 agonist, 2 antagonist, 3-5; DAT; DOR; EP1-4; GABAA,B; GPR40,41,43; H1-4; HERG; IMIDAZOLINE 1; KA-R*; KOR, KORagonist, antagonist; M1, 1 agonist, 1 antagonist, 2, 3, 3 agonist, 3 antagonist, 4, 5, 5 agonist, 5 antagonist; MDR 1; mGluR1A,2,4,5,5-cloned,5-rat brain,6,8; MOR; Na^+-Channel; NET; NK1, 1 antagonist, 2, 2 antagonist, 3, 3 antagonist; NMDA; NMDA/MK801; NT-1; OXYTOCINagonist, antagonist; PAR1agonist, antagonist; PCP; PKCA, B, D, E, G; PTHR2, Purinergicagonist, antagonist; SET; σ1,2; V1, 1 agonist, 1 antagonist, 2, 2 agonist, 2 antagonist, 3, 3 agonist, 3 antagonist, VMAT1, 2).

PC12 cell σ2 receptors = molecular target: T1, PC12 cell σ2 receptors (Rattus norvegicus, UniProt Q5U3Y7); assay: PDSP σ2 receptor binding; conditions: at 10 µM (Table 1 footnote: 10 µmol), PC12 cell σ2
T1 construct: endogenous in cells; host or cells: PC12 cells
T1 sequence (Q5U3Y7 1-176): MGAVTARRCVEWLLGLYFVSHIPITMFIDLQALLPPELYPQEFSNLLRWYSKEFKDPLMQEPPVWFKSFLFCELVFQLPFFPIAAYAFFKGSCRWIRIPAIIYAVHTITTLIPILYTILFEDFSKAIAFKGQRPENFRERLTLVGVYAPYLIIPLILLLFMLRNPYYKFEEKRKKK
Source text: as §1, §2

calcium channel = assay: PDSP pharmacological screen, calcium channel; format: binding; conditions: 10 μM
Source text: as §1
(§3) Assessment of Binding Affinity against a Wide Range of Other Receptors and Binding Sites. […]

hERG channel = hERG channel (Homo sapiens, UniProt Q12809); assay: PDSP pharmacological screen, hERG channel; conditions: read-out: inhibition of reference radioligand binding, hERG channel
Chain of hERG channel (Q12809 whole entry): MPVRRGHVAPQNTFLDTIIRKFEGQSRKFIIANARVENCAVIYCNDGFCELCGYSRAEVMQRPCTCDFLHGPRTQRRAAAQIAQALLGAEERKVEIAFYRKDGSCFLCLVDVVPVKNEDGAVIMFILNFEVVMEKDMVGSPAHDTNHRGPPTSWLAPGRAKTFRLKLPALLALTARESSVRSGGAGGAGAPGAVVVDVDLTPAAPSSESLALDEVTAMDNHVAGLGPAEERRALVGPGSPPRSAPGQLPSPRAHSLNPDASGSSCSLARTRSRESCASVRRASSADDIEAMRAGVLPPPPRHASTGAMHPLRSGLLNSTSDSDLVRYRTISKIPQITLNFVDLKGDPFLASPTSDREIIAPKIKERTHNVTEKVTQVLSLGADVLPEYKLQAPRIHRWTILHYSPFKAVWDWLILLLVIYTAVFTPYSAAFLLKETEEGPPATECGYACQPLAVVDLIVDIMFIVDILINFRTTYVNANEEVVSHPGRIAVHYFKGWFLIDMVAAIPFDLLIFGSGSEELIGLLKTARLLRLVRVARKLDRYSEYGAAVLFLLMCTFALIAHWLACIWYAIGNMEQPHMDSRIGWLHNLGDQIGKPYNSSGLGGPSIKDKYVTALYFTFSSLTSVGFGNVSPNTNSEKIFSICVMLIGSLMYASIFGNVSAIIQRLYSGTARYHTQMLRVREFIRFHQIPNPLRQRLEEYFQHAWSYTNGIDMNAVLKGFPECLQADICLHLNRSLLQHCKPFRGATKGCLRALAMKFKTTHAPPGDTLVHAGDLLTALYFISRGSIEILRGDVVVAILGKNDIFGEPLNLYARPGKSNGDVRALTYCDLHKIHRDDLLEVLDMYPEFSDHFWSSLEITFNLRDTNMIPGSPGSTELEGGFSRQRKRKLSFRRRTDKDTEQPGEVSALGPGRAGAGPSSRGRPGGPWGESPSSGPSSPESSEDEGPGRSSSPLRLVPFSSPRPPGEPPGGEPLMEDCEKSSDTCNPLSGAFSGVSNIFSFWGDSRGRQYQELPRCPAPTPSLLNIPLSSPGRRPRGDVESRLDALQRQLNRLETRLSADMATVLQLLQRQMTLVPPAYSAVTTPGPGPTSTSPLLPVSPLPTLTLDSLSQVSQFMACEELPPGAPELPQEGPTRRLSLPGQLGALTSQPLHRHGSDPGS
Source text: as §1, §3

[1] = test system: numerous binding sites and receptors; assay: PDSP pharmacological screen, other receptors and binding sites; conditions: 10 μM; not greater than 10% for sites other than calcium channel, hERG, σ1, σ2
Source text: as §1, §3

[2] = LogD7.4 measurement (1-octanol / sodium phosphate buffer); format: physicochemical
Method: The radiochemical purity of the radioligand was measured via HPLC. […] Aliquots (1 mL) were distributed to each of eight borosilicate disposable culture tubes (13 × 100 mm). Six tubes were extracted with buffer pre-treated 1-octanol (1 mL) by vortexing for one minute and then centrifuged for one minute. The organic and aqueous phases were separated. Samples of organic phase (50 µL) and aqueous phase (50 µL) were taken and separately measured for radioactivity. The remaining two tubes containing radioactivity in buffer were analyzed with HPLC to check for any decrease in radiochemical purity over the time-span of the experiment. […] LogD was calculated as log[(cpm/mL for 1-octanol phase)/(cpm/mL for aqueous phase)] using Pallas for Windows software (CompuDrug Inc.).

[3] = pKa measurement (cyclohexane / sodium phosphate buffers); format: physicochemical; conditions: distribution between cyclohexane and sodium phosphate buffers
σ1 receptors = molecular target: T2, σ1 receptors (Rattus norvegicus, UniProt Q9R0C9); assay: ED50 for pre-blocking of ^18F-FTC146 uptake in rat whole brain (PET); format: in vivo; conditions: radioligand ^18F-FTC146, AUC 20-120 min
T2 construct: from tissue; host or cells: brain of living male rats (PET imaging)
T2 sequence (Q9R0C9 whole entry): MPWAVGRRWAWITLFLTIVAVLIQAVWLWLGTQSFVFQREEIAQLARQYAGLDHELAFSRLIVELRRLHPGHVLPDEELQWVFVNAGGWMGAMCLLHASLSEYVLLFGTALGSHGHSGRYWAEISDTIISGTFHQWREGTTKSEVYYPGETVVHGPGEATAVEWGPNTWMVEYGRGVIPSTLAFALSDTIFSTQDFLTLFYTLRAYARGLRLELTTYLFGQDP
Method: (§4) For radioligand injection, a polyethylene catheter (PE 10) was inserted into the penile vein of a male rat and then secured with tissue adhesive and tape. For dynamic scanning, the rats were secured with tape in the scanner and kept under 1.5% isoflurane anesthesia via a nose cone. Body temperature was monitored with a rectal probe. All PET scans were performed on a microPET Focus 220 scanner (Siemens Medical Solutions) (7,8). Data were acquired in listmode and reconstructed with Fourier rebinning + 2D filtered backprojection. A transmission scan was acquired before radioligand injection for attenuation correction. Dynamic scanning began at the time of a one-minute intravenous bolus injection of the radioligand under study (55 ± 19 MBq; volume 0.2 to 1.0 mL). The injected mass dose was 3 ± 1 nmol/kg. Challenge agents were administered intravenously 10 minutes before the radioligand for pre-blocking studies or 10 minutes after the radioligand for displacement studies. Tomographic images were analyzed with pixel-wise modeling computer software (PMOD 2.6; PMOD Group). Regions-of-interest in the brain were delineated, and time-activity curves calculated as SUV versus time.
Pre-blocking and displacement experiments were performed to assess radioligand target engagement and radioligand selectivity in vivo. Normally 4 doses of 0.01 mg/kg, 0.05 mg/kg, 0.25 mg/kg, and 1.25 mg/kg were used for preblocking experiments, and only 2 doses of 0.25 mg/kg and 1.25 mg/kg were used for displacement experiments. […] […] […] […] Where data permitted, the dose-response curves were fitted with GraphPad Prism software (version 8.1.1; GraphPad) to estimate the ED50 values. A dummy value of 100 pmol per kg body weight was used for zero concentration of the challenge agent in the construction of these dose-response curves. Numerical data are expressed as mean ± S.D. for n>2, or as mean and range for n = 2.

GluN2B = molecular target: T3, GluN2B (Homo sapiens, UniProt Q05586+Q13224); set-up: method as in PMID 31924728; conditions: cited from earlier work
T3 construct: expressed in transfected cells; host or cells: transiently transfected mouse fibroblast cells (membrane homogenate)
T3 sequence (Q13224 27-1484, species assumed, other chains not shown): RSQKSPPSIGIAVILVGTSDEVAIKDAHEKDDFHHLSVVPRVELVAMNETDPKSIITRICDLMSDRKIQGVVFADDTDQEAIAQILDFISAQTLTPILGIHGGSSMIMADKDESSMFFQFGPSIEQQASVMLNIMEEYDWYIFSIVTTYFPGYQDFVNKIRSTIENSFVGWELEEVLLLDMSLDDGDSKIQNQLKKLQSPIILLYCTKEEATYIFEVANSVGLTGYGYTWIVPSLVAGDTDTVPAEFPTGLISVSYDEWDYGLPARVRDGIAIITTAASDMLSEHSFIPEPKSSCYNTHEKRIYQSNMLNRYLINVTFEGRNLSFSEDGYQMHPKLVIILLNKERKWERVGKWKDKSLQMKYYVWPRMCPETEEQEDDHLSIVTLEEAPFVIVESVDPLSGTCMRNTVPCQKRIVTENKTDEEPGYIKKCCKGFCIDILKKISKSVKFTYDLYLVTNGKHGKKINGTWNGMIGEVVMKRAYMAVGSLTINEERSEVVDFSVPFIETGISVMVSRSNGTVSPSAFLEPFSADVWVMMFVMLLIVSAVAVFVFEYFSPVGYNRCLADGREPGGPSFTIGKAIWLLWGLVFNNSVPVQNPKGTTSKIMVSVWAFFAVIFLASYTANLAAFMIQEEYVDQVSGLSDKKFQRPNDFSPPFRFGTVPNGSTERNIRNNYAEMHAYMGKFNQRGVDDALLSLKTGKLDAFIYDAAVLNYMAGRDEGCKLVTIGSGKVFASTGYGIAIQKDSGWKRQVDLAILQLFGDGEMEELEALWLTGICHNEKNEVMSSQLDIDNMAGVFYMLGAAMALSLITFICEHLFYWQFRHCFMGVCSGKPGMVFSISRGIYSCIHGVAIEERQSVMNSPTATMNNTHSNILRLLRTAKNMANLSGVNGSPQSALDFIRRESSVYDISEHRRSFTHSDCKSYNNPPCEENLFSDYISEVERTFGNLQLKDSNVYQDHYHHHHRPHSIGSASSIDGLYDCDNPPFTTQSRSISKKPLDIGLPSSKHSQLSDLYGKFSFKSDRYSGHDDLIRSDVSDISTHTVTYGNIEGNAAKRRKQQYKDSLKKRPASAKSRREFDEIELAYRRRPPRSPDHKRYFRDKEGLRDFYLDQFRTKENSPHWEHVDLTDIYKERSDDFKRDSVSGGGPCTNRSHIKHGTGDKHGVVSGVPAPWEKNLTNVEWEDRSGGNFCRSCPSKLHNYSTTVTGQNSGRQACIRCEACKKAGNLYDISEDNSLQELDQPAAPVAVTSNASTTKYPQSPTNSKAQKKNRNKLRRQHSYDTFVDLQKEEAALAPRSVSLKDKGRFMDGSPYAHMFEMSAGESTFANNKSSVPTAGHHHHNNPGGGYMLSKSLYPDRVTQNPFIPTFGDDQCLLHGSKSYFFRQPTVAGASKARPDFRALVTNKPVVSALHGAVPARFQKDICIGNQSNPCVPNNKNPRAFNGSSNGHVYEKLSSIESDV

σ2 receptor = conditions: at 10 µmol; cited from earlier work
[4] = cited from earlier work
[5] = cited from earlier work; remark: listed apart in the source
GluN2B receptors [6] = molecular target: T4, GluN2B receptors (Rattus norvegicus, UniProt P35439+Q00960); set-up: method as in PMID 31924728; conditions: pre-blocking, radioligand ^11C-(S)-NR2B-SMe; cited from earlier work
T4 construct: from tissue; host or cells: brain of living male rats (PET imaging)
T4 sequence (Q00960 27-1482, other chains not shown): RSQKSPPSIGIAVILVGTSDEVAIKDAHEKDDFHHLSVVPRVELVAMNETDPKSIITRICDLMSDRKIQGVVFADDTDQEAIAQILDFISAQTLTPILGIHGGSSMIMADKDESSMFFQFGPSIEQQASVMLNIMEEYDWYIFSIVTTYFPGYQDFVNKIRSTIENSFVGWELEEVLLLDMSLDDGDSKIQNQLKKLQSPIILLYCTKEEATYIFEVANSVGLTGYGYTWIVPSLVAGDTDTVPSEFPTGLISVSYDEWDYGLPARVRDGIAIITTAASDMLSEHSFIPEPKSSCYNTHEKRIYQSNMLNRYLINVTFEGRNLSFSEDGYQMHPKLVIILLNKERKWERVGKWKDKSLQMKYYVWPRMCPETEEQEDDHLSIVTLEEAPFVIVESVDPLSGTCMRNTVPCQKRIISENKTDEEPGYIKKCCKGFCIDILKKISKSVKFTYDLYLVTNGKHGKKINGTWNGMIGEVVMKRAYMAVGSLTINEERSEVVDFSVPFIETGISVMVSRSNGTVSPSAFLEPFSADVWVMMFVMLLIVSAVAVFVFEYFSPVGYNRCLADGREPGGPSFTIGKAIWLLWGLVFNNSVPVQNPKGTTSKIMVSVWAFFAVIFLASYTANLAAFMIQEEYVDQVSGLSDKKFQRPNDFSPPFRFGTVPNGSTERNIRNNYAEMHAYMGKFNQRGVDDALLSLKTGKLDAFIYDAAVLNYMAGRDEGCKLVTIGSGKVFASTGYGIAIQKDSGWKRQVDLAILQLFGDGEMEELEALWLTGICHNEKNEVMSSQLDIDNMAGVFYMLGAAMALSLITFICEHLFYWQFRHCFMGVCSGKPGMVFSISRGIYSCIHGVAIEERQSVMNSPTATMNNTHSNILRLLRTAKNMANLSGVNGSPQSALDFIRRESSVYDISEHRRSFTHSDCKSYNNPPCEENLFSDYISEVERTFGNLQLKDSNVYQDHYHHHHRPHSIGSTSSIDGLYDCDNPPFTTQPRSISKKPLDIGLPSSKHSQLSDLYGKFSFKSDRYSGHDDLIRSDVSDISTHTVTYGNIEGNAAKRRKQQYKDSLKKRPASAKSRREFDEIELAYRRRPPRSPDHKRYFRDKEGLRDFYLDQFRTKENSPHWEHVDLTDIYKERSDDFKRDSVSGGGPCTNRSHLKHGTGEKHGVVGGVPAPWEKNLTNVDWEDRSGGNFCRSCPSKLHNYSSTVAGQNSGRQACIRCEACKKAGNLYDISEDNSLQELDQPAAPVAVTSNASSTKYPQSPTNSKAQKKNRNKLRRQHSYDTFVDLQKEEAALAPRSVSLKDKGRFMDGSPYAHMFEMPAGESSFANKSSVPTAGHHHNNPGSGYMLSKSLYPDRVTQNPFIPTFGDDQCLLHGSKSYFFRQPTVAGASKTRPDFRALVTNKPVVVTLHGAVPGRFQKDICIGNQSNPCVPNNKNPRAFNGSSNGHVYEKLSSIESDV

[7] = Radiochemical stability of formulated radioligand; format: physicochemical
Source text: However, the fraction collected from HPLC contains 0.1% TFA. […] Protection with ascorbic acid was therefore used immediately after HPLC radioligand purification to maintain weakly acidic and reducing conditions.

[8] = Method: For Brain. The brain (1.7 g) was homogenized in twice its volume of cold saline. […] An aliquot (450 µL) was then placed in acetonitrile (720 µL) along with carrier NR2B-Me (5 µg) and mixed well. Water (100 µL) was then added, mixed well, measured for radioactivity, and centrifuged at 10,000 g for one minute. The supernatant was analyzed via HPLC. The precipitate was measured for radioactivity to determine the recovery of radioactivity into the supernatant that had been injected onto HPLC.
For Whole Blood. […] The sample was mixed well and incubated at 37 °C for one hour. Water (300 µL) was added to lyse open all cells. An aliquot (450 µL) was then removed to a new vial, and acetonitrile (720 µL) was added. The mixture was mixed well, measured for radioactivity, and centrifuged at 10,000 g for one minute. The supernatant was analyzed via HPLC as described for brain.
For Plasma. Plasma was separated from blood cells. […] The mixture was measured for radioactivity. An aliquot (450 µL) was then placed in acetonitrile (720 µL) along with carrier NR2B-Me (5 µg) and mixed well. Water (100 µL) was then added, mixed well, measured for radioactivity, and centrifuged at 10,000 g for one minute. The supernatant was analyzed with HPLC as described for brain. The precipitate was measured for radioactivity to determine radioactivity recovery into the supernatant that had been injected onto HPLC.
(§5) The SUV due to radioligand or radiometabolite only was calculated by multiplying the total SUV of the tissue by the fraction of the radioligand or radiometabolite measured with HPLC (Supplementary Table S4).

[9] = remark: listed apart in the source
Method: Rats were anesthetized with 1.5% isoflurane in oxygen. […] The rats were then immediately sacrificed by decapitation, and their brains and myocardial tissues were excised.
Plasma was separated from blood cells, and a sample (50 µL) was measured for radioactivity. An aliquot (450 µL) was placed in acetonitrile (720 µL) along with carrier NR2B-Me (5 µg) and mixed well. Water (100 µL) was added, mixed well, measured for radioactivity, and centrifuged at 10,000 g for one minute. The supernatant was analyzed with radio-HPLC and the precipitate measured for radioactivity, as described for brain.
as §5

[10] = room temperature, at least 30 min
Source text: Subsequent processing and analysis were as described for rat ex vivo experiments in the main text.

[11] = n = 3
Method: Human Plasma Free Fraction. Plasma free fraction (fp) was measured as described previously (6). […] If necessary, samples were left to decay to within the optimal radioactivity range for accurate γ-counter measurement.

GluN2B receptors [12] = molecular target: T4, GluN2B receptors; assay: PET displacement / pre-blocking of ^11C-NR2B-Me radioligands with Ro-25-6981, Lassen plots; format: in vivo; conditions: rat; Ro-25-6981 0.25 mg/kg i.v. 10 min before radioligand
Method: as §4, with “For dynamic scanning, the rats were secured with tape in the scanner and kept under 1.5% isoflurane anesthesia via a nose cone.” left out
Pre-blocking and displacement experiments were performed to assess radioligand target engagement and radioligand selectivity in vivo. […] Areas-under the curve (AUCs) from time-activity curves between 20 and 90 minutes were calculated for each radioligand. AUCs obtained from the same production of radioligand were scaled to the value (or mean value) for the baseline experiment to give relative values (relative AUC20–90 min). […] Where data permitted, the dose-response curves were fitted with GraphPad Prism software (version 8.1.1; GraphPad) to estimate the ED50 values. A dummy value of 100 pmol per kg body weight was used for zero concentration of the challenge agent in the construction of these dose-response curves. Numerical data are expressed as mean ± S.D. for n>2, or as mean and range for n = 2.

[13] = rat, ex vivo 30 min after intravenous injection

- inhibition at 10 µM (guinea pig σ1 receptor): 89.7%
- inhibition at 10 µM (PC12 cell σ2 receptors): 90.7%
- σ2 inhibition (PC12 cell σ2 receptors; 10 µM): 91%
- inhibition of reference radioligand binding, calcium channel (calcium channel): 39.6%
- logD ([2]; 1-octanol/sodium phosphate buffer, pH 7.4, Table 1, text gives this value as measured logD7.4, read-out: cLogD7.4): 3.27
- pKa ([3]; cyclohexane/sodium phosphate buffer, read-out: pKa (apparent)): 5.04
SMILES: COc1ccc2c(c1)CCN(CCCCc1ccc(C)cc1)CC2O (stereo not drawn) [NR2B-Me, 7-methoxy-3-(4-(p-tolyl)butyl)-2,3,4,5-tetrahydro-1H-benzo[d]azepin-1-ol]
- inhibition at 10 µM (hERG channel): 61.7%
- inhibition of reference radioligand binding, numerous other binding sites and receptors [1]: only weakly inhibited

- ED50 in rat whole brain in vivo ^18F-FTC146 (σ1 receptors): 1064 nmol/kg
SMILES: CSc1ccc2c(c1)CCN(CCCCc1ccc(C)cc1)CC2O (racemic) [NR2B-SMe, (R,S)-7-thiomethoxy-3-(4-(4-methyl-phenyl)butyl)-2,3,4,5-tetrahydro-1H-benzo[d]azepin-1-ol]
- Ki (GluN2B): 2.2 nM
- σ2 inhibition (σ2 receptor): 90%
- pKa [4]: 5.03
- cLogD7.4 [5]: 3.41
- ED50 in rat whole brain in vivo ^11C-(S)-NR2B-SMe (GluN2B receptors [6]): 9.5 nmol/kg

SMILES: COc1ccc2c(c1)CCN(CCCCc1ccc([11CH3])cc1)CC2O (racemic) [^11C-NR2B-Me]
- logD7.4 ([2]; 1-octanol / sodium phosphate buffer pH 7.4, room temperature): 3.27
- pKa (apparent) [3]: 5.04 ± 0.01
- time stable in PBS (10 mM) [7]: at least 2.5 hours
- radioligand remaining in solution (no adsorption to glass test tubes) ([7]; PBS 10 mM): 98.1 ± 0.5%
- conversion into radiometabolite in brain homogenate ([8]; rat brain homogenate): less than 0.5%
- In vitro stability, plasma ([8]; rat plasma, 37 °C, 30 min): 70.3%
- single less lipophilic radiometabolite detected in rat plasma in vitro ([8]; rat plasma, 37 °C, 30 min): about 30%
- Ex vivo stability, brain (unchanged radioligand as % of radioactivity) ([9]; rat brain, 30 min after intravenous injection): 99.5% and > 99%
- Ex vivo stability, plasma (unchanged radioligand as % of radioactivity) ([9]; rat plasma, 30 min after intravenous injection): 46.2%
- Radioactivity conc., brain [9, 13]: 4.1 SUV
- Radioactivity conc., plasma [9, 13]: 0.04 SUV
- Radioactivity conc., whole blood [9, 13]: 0.300 SUV
- Tissue to plasma radioactivity ratio, brain [9, 13]: 103
- Tissue to plasma radioactivity ratio, plasma [9, 13]: 1.0
- Tissue to plasma radioactivity ratio, whole blood [9, 13]: 7.5
- stability in human brain homogenate [10]: 99.5%
- stability in human plasma [10]: 100%
- human plasma free fraction (fp) [11]: 1.16% ± 0.14
- radioactivity in brain regions at 90 min as % of peak values after pre-block (GluN2B receptors [12]): about 10%
